Results from US6555578B2, “Thyromimetic antiobesity agents” (Pfizer Inc., priority 1999, dated 2003).

System: whole body oxygen consumption
Experiment: In vivo screen: whole body (resting) oxygen consumption in fatty Zucker rats by indirect calorimetry
Conditions: male fatty Zucker rats, oral gavage once daily for 6 days, measured the day after the last dose
Experimental: This in vivo screen is designed to evaluate the efficacy and cardiac effects of compounds that are tissue selective thyroid hormone agonists. The efficacy endpoints measured are whole body oxygen consumption and the activity of liver mitochrondrial alpha-glycerophosphate dehydrogenase (mGPDH). The cardiac endpoints that are measured are heart weight and heart mGPDH activity. The protocol involves dosing fatty Zucker rats for 6 days, then measuring oxygen consumption and harvesting of tissues for preparation of mitochondria and assaying of enzyme activity. […]
Oxygen consumption is measured the day after the last dose of compound is given using an open circuit, indirect calorimeter (Oxymax, Columbus Instruments, 950 North Hague Ave., Columbus, Ohio 43204). […] Rats are removed from their home cages, their body weights are recorded and they are placed in sealed chambers (43×43×10 cm) of the calorimeter and the chambers are placed in activity monitors. […] The activity monitors have 15 infrared light beams spaced one inch apart on each axis; ambulatory activity is recorded when two consecutive beams are broken and the results are recorded as counts. Oxygen consumption and ambulatory activity are measured every 10 minutes for 5-6.5 hours. […]

| SMILES | stimulated oxygen consumption (dose of 1.0 mg/kg body weight) [%] | stimulated oxygen consumption (doses of 0.005 to 0.3 mg/kg body weight) [%] |
| --- | --- | --- |
| Cc1cc(NC(=O)C(=O)O)cc(C)c1Oc1ccc(O)c(C(C)C)c1 [CGS-23425, N-[3,5-dimethyl-4-(4′-hydroxy-3′-isopropylphenoxy)-phenyl]-oxamic acid] | 27 |  |
| CCOC(=O)C(=O)Nc1cc(C)c(Oc2ccc(O)c(C(O)c3ccc(F)cc3)c2)c(C)c1 (centres unmarked) [CGS-26214, ethyl N-[4-[3′-[(4-fluorophenyl)hydroxymethyl]-4′-hydroxyphenoxy]-3,5-dimethylphenyl]oxamate] |  | 14 to 31 |
